In patent publication US20260158009A1 (GENZYME CORPORATION, priority 2023, published 2026):

Experiments:
[1] = target: T1, hRIPK1 (aa 1-375) fusion protein (Homo sapiens, UniProt Q13546); experiment: ADP-Glo kinase assay: catalytic activity of RIPK1 (autophosphorylation, conversion of ATP to ADP); format: biochemical
T1 construct: hRIPK1 (aa 1-375) fusion protein
T1 sequence (Q13546 1-375): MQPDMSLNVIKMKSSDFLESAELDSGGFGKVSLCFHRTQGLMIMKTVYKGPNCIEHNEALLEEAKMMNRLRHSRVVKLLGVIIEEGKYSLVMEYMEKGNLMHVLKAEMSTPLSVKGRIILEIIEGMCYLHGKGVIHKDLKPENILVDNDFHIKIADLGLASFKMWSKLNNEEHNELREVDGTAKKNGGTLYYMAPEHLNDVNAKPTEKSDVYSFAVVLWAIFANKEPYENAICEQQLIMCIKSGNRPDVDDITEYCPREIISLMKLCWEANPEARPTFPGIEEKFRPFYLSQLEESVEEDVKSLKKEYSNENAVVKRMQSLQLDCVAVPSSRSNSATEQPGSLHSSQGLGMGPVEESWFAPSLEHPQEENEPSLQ
Procedure: The catalytic activity of RIPK1 was measured by monitoring the conversion of Adenosine triphosphate (ATP) to Adenosine diphosphate (ADP) due to autophosphorylation using an ADP-Glo kinase kit (Promega, catalog no. V9104).
In detail, 2 μl recombinantly produced hRIPK1 (aa 1-375) fusion protein (end concentration 3.6 μg/ml) and 2 μl compound (end concentration 33300-1.69 nM; DMSO end concentration 1%) were incubated for 30 minutes at room temperature and then 2 μl ATP (ADP Glo kit, end concentration 50 μM) were added. After another 240 minutes incubation at room temperature, 5 μl Promega ADP-Glo reagent I was added to quench the reaction and deplete unconsumed ATP. After an incubation period of 30 minutes, 10 μl Promega ADP-Glo detection reagent II was added resulting in conversion of ADP to ATP, which generates a light-reaction between luciferase and luciferin. Luminescence was quantified after 30 minutes with a Pherastar FS (BMG LABTECH, Ortenberg).
The adjustment was obtained by nonlinear regression using the Levenberg Marquardt algorithm.

U937 cells = experiment: Cellular assay in U937 cells: activity of RIPK1 inhibitors on TNFα/zVAD.fmk-induced cell death (necroptosis), CellTiter 96 AQueous (MTS) readout; format: cell-based; details: Homo sapiens, U-937
Source text: Upon TNF-Receptor I ligation, Ser/Thr kinase RIPK1 is recruited to a transient receptor complex 1. Upon modification of RIPK1 which promotes activation of RIPK1, complex IIb can form, that involves recruitment of RIPK3 and MLKL (mixed lineage-kinase domain-like protein) which then translocates from the cytosol to the plasma membrane to execute cell death (Cai, Z. et al, Nat. Cell Biol. (2014) 16:55-65).
Cell death was quantified in 96 well plates by determination of the amount of live cell using a CellTiter 96 AQueous reagent (Promega), a calorimetric method to measure the number of live cells by reducing tetrazolium compound [3-(4,5-dimethylthiazol-2-yl)-5-(3-carboxymethoxyphenyl)-2-(4-sulfophenyl)-2H-tetrazolium, inner salt; MTS] into formazan. Absorbance of formazan was read at 490 nm. The inhibitory activity of the test compound was quantified in a concentration response curve (CRC) experiment.
Compounds were obtained as 10 mM stock solutions and were diluted 1 to 10 volumes with DMSO to yield a 1 mM solution. From this solution 2 μl were diluted with 998 μl growth medium. 100 μl of 2 μM compound solution was further diluted sequentially with a dilution factor of 2.5 by adding 150 μl growth medium. A total of 10 concentrations were tested ranging from 10 μM to 0.26 nM or from 1 μM to 0.07 nM.
U937 cells were cultured in RPMI1640 Glutamax and 10% heat inactivated FBS. 50 μl cell suspension containing 1×10^6 cells/ml supplemented with 50 μM zVAD.fmk (Benzyloxycarbonyl-Val-Ala-Asp (OMe) fluoromethylketone) and 100 ng/ml recombinant human TNF[…] were dispensed in each well of a 96-well plate. 50 μl of compound dilutions (described in Cellular assay in U937 cells) were added and the cell suspension incubated overnight (18 to 24 hrs) at 37° C., 5% CO2 in a humidified atmosphere (95% rH). High (no compound) and low control (no TNF[…], zVAD.fmk) were tested with 7 replicates; all compound concentrations were tested in duplicates on each experimental plate.
CellTiter 96 Aqueous reagent was mixed (100 μl PMS (phenazine methosulfate) solution/2 ml MTS (3-(4,5-[…])-5-(3-carboxymethoxyphenyl)-2-(4-sulfophenyl)-2H-tetrazolium, inner salt) solution) and 20 μl were added per well. After 4 hrs incubation at 37° C. (5% CO2 95% rH) optical density was measured at 490 nm on a microplate reader (Tecan Infinite M1000).
The % inhibition is expressed as percentage of the maximal inhibition value obtained in the absence of TNFα/zVAD.fmc.

| SMILES | IC50 [1] [nM] | IC50 (U937 cells) [nM] |
| --- | --- | --- |
| Cc1ncc(C[C@H]2CC[C@H](C(=O)N3OCC[C@H]3c3cc(F)cc(C#N)c3)CC2)cn1 [compound 263, trans-3-fluoro-5-[(3S)-2-[4-[(2-methylpyrimidin-5-yl)methyl]cyclohexanecarbonyl]isoxazolidin-3-yl]benzonitrile] | 41 | 59 |
| NC(=O)c1cc(F)c2ncn(C[C@H]3CC[C@H](C(=O)N4OCC[C@H]4c4cc(F)cc(F)c4)CC3)c2c1 [compound 81, trans-1-((4-((S)-3-(3,5-difluorophenyl)isoxazolidine-2-carbonyl)cyclohexyl)methyl)-4-fluoro-1H-benzo[d]imidazole-6-carboxamide] | 33 | 166 |
| O=C([C@H]1CC[C@H](Cc2ccc3ncnn3c2)CC1)N1OCC[C@H]1c1cnccn1 [compound 143, trans-[(3S)-3-pyrazin-2-ylisoxazolidin-2-yl]-[4-([1,2,4]triazolo[1,5-a]pyridin-6-ylmethyl)cyclohexyl]methanone] | 76 | 44 |
| N#Cc1cc(F)cc([C@@H]2CCON2C(=O)[C@H]2C[C@H](Cn3cnc4cc(F)ccc43)C2)c1 [compound 116, trans-3-fluoro-5-((S)-2-(3-((5-fluoro-1H-benzo[d]imidazol-1-yl)methyl)cyclobutane-1-carbonyl)isoxazolidin-3-yl)benzonitrile] | 57 | 491 |
| Cc1cc(C[C@H]2CC[C@H](C(=O)N3OCC[C@H]3c3cc(F)cc(C#N)c3)CC2)cnn1 [compound 302, trans-3-fluoro-5-[(3S)-2-[4-[(6-methylpyridazin-4-yl)methyl]cyclohexanecarbonyl]isoxazolidin-3-yl]benzonitrile] | 31 | 37 |
| COc1cc(C[C@H]2CC[C@H](C(=O)N3OCC[C@H]3c3csc(C)n3)CC2)cn2nc(C)nc12 [compound 367, trans-[4-(8-Methoxy-2-methyl-[1,2,4]triazolo[1,5-a]pyridin-6-ylmethyl)-cyclohexyl]-[(S)-3-(2-methyl-thiazol-4-yl)-isoxazolidin-2-yl]-methanone] | 94 | – |
| COc1cncc([C@@H]2CCON2C(=O)[C@H]2CC[C@H](Cn3ccc4ccc(C#N)cc43)CC2)n1 [compound 241, trans-1-[[4-[(3S)-3-(6-methoxypyrazin-2-yl)isoxazolidine-2-carbonyl]cyclohexyl]methyl]indole-6-carbonitrile] | 148 | 28 |
| Cc1cn2cc(C[C@H]3CC[C@H](C(=O)N4OCC[C@H]4c4cnccn4)CC3)ccc2n1 [compound 226, trans-[4-[(2-methylimidazo[1,2-a]pyridin-6-yl)methyl]cyclohexyl]-[(3S)-3-pyrazin-2-ylisoxazolidin-2-yl]methanone] | 44 | 40 |
| COc1cc(CC2CCC(C(=O)N3OCC[C@H]3c3cnccn3)CC2)cn2nc(C)nc12 (stereo partly drawn) [compound 314, [4-[(8-methoxy-2-methyl-[1,2,4]triazolo[1,5-a]pyridin-6-yl)methyl]cyclohexyl]-[(3S)-3-pyrazin-2-yl-1,2-oxazolidin-2-yl]methanone] | 35 | – |
| Cc1cnc([C@@H]2CCON2C(=O)[C@H]2CC[C@H](Cc3cnc4c(C)nn(C)c4c3)CC2)cn1 [compound 410, [4-[(1,3-dimethylpyrazolo[4,3-b]pyridin-6-yl)methyl]cyclohexyl]-[(3S)-3-(5-methylpyrazin-2-yl)-1,2-oxazolidin-2-yl]methanone] | 80 | – |

More lines, in order of falling IC50 [1], values ahead:

| IC50 [1] [nM] | SMILES | IC50 (U937 cells) [nM] |
| --- | --- | --- |
| 31 | O=C([C@H]1C[C@H](Cn2cnc3cc(F)ccc32)C1)N1OCC[C@H]1c1cc(F)cc(F)c1 [compound 115, trans-((S)-3-(3,5-difluorophenyl)isoxazolidin-2-yl)(3-((5-fluoro-1H-benzo[d]imidazol-1-yl)methyl)cyclobutyl)methanone] | 138 |
| 26 | Cc1cc(C[C@H]2CC[C@H](C(=O)N3OCCC3c3cnccn3)CC2)c(C)cn1 (stereo in doubt) [compound 356, trans-[4-(2,5-Dimethyl-pyridin-4-ylmethyl)-cyclohexyl]-((S)-3-pyrazin-2-yl-isoxazolidin-2-yl)-methanone] | 5 |
| 25 | NC(=O)c1ccc2c(ccn2C[C@H]2CC[C@H](C(=O)N3OCC[C@H]3c3ccccn3)CC2)c1 [compound 255, trans-1-[[4-[(3S)-3-(2-pyridyl)isoxazolidine-2-carbonyl]cyclohexyl]methyl]indole-5-carboxamide] | 521 |
| 24 | Cc1cnc([C@@H]2CCON2C(=O)[C@H]2CC[C@H](Cc3cc(C)ncc3Cl)CC2)cn1 [compound 385, trans-[4-[(5-chloro-2-methylpyridin-4-yl)methyl]cyclohexyl]-[(3S)-3-(5-methylpyrazin-2-yl)-1,2-oxazolidin-2-yl]methanone] | 3 |
| 23 | N#Cc1cc(F)cc([C@@H]2CCON2C(=O)[C@H]2CC[C@H](Cn3cnc4ccc(F)cc43)CC2)c1 [compound 112, trans-3-fluoro-5-((S)-2-(4-((6-fluoro-1H-benzo[d]imidazol-1-yl)methyl)cyclohexane-1-carbonyl)isoxazolidin-3-yl)benzonitrile] | 7 |
| 22 | Cc1cc2nnc(C)n2cc1C[C@H]1CC[C@H](C(=O)N2OCC[C@H]2c2ccc(F)c(F)c2)CC1 [compound 318, [(3S)-3-(3,4-difluorophenyl)isoxazolidin-2-yl]-[4-[(3,7-dimethyl-[1,2,4]triazolo[4,3-a]pyridin-6-yl)methyl]cyclohexyl]methanone] | 27 |
| 20 | N#Cc1cc(F)cc([C@@H]2CCON2C(=O)[C@H]2CC[C@H](Cc3ccc(F)c(C#N)c3)CC2)c1 [compound 244, trans-5-[[4-[(3S)-3-(3-cyano-5-fluoro-phenyl)isoxazolidine-2-carbonyl]cyclohexyl]methyl]-2-fluoro-benzonitrile] | – |
| 17 | N#Cc1cc(F)cc([C@@H]2CCON2C(=O)[C@H]2CC[C@H](Cn3ccc4cc(F)c(C(N)=O)cc43)CC2)c1 [compound 76, trans-1-((4-((S)-3-(3-cyano-5-fluorophenyl)isoxazolidine-2-carbonyl)cyclohexyl)methyl)-5-fluoro-1H-indole-6-carboxamide] | 8 |
| 15 | NC(=O)c1ccc2ccn(C[C@H]3CC[C@H](C(=O)N4OCC[C@H]4c4cc(F)cc(F)c4)CC3)c2c1 [compound 105, trans-1-((4-((S)-3-(3,5-difluorophenyl)isoxazolidine-2-carbonyl)cyclohexyl)methyl)-1H-indole-6-carboxamide] | 4 |
| 13 | Cc1ccc(CC23CCC(C(=O)N4OCC[C@H]4c4cc(F)cc(F)c4)(CC2)C3)cc1C(N)=O [compound 269, 5-[[4-[(3S)-3-(3,5-difluorophenyl)isoxazolidine-2-carbonyl]norbornan-1-yl]methyl]-2-methyl-benzamide] | 28 |
| 6 | Cn1ncc2ccc(C[C@H]3CC[C@H](C(=O)N4OCC[C@H]4c4cc(F)cc(F)c4)CC3)cc21 [compound 295, trans-[(3S)-3-(3,5-difluorophenyl)isoxazolidin-2-yl]-[4-[(1-methylindazol-6-yl)methyl]cyclohexyl]methanone] | 1 |
